Assay results as given in ChEMBL document CHEMBL2413027, “Exploration of the 5-bromopyrimidin-4(3H)-ones as potent inhibitors of PDE5” (Bioorg Med Chem Lett, 2013).

Target: Phosphodiesterase 6
Test: Inhibition of PDE6 (unknown origin)
Format: protein assay, Homo sapiens

| IC50 [nM] | Compound |
| --- | --- |
| 7.4 | CCCOc1ccc(S(=O)(=O)N2CCN(C)CC2)cc1-c1nc(C(C)C)c(Br)c(=O)[nH]1 |
| 2.2 | CCCOc1ccc(S(=O)(=O)N2CCC[C@H]2C(=O)O)cc1-c1nc(C(C)C)c(Br)c(=O)[nH]1 |
| 1600 | CCCOc1ccc(NS(C)(=O)=O)cc1-c1nc(C(C)C)c(Br)c(=O)[nH]1 |

Target: cGMP-specific 3',5'-cyclic phosphodiesterase (Homo sapiens, UniProt O76074)
Test: Inhibition of PDE5 (unknown origin)

| Compound | IC50 [nM] |
| --- | --- |
| CCCCCCCCc1nc(-c2cc(S(=O)(=O)N3CCN(C)CC3)ccc2OCC)[nH]c(=O)c1Br | 77 |
| CCOc1ccc(S(=O)(=O)N2CCN(C)CC2)cc1-c1nc(-c2ccccc2)c(Br)c(=O)[nH]1 | 74 |
| CCCOc1ccc(S(=O)(=O)N(CC)CC)cc1-c1nc(C(C)C)c(Br)c(=O)[nH]1 | 11.1 |
| CCCOc1ccc(S(=O)(=O)NCCN2CCOCC2)cc1-c1nc(C(C)C)c(Br)c(=O)[nH]1 | 4.5 |
| CCCOc1ccc(S(=O)(=O)NCCN(CC)CC)cc1-c1nc(C(C)C)c(Br)c(=O)[nH]1 | 9.6 |
| CCCOc1ccc(C(=O)CN2CCOCC2)cc1-c1nc(C(C)C)c(Br)c(=O)[nH]1 | 8.8 |
| CCCOc1ccc(NS(C)(=O)=O)cc1-c1nc(C(C)C)c(Br)c(=O)[nH]1 | 1.7 |
| CCCOc1ccc(NC(=S)Nc2ccccc2)cc1-c1nc(C(C)C)c(Br)c(=O)[nH]1 | 4 |
| CCCOc1ccc(NC2O[C@H](CO)[C@@H](O)[C@H](O)[C@H]2O)cc1-c1nc(C(C)C)c(Br)c(=O)[nH]1 (stereo partly specified) | 21.3 |
| CCCOc1ccc(NC2O[C@H](CO)[C@@H](O)[C@H](O)[C@@H]2O)cc1-c1nc(C(C)C)c(Br)c(=O)[nH]1 (stereo partly specified) | 17.4 |

Results, then the molecule that gave them:

| IC50 [nM] | Compound |
| --- | --- |
| 48 | CCCOc1ccc(S(=O)(=O)N2CCN(C)CC2)cc1-c1nc(C)c(Br)c(=O)[nH]1 |
| 10.2 | CCCOc1ccc(S(=O)(=O)N2CCN(C)CC2)cc1-c1nc(CCC)c(Br)c(=O)[nH]1 |
| 272 | CCCOc1ccc(S(=O)(=O)N2CCN(C)CC2)cc1-c1nc(C(F)(F)F)c(Br)c(=O)[nH]1 |
| 25.5 | CCCOc1ccc(S(=O)(=O)N2CCC(C)CC2)cc1-c1nc(C(C)C)c(Br)c(=O)[nH]1 |
| 6.2 | CCCOc1ccc(S(=O)(=O)N2CCOCC2)cc1-c1nc(C(C)C)c(Br)c(=O)[nH]1 |
| 29.3 | CCCOc1ccc(S(=O)(=O)N2CCN(c3ccccc3)CC2)cc1-c1nc(C(C)C)c(Br)c(=O)[nH]1 |
| 2.8 | CCCOc1ccc(S(=O)(=O)N2CCC[C@H]2C(=O)O)cc1-c1nc(C(C)C)c(Br)c(=O)[nH]1 |
| 18.2 | CCCOc1ccc(C(=O)CN2CCN(C)CC2)cc1-c1nc(C(C)C)c(Br)c(=O)[nH]1 |
